Like-named read-outs stand apart in the source and are kept apart here.
Tested on: RSV A2
Assay: RSV antiviral cytopathic effect (CPE) assay
Format: cell-based
Conditions: human respiratory syncytial virus, HEp-2, 120 h, HEp2 cells infected with RSV A2 (moi ~0.01), 5 days, MTT readout
Description: Compounds of the invention were tested for their antiviral activity against respiratory syncytial virus. Cytopathic effect (CPE) assays were performed essentially as described in the literature (see for example Watanabe et al, 1994, J. Virological Methods, 48:257). Serial dilutions of the test compounds were made in 96 well plates. HEp2 cells (1.0×10^4 cells/well) were infected with RSV at a low multiplicity of infection (e.g. RSV A2 at an moi of ˜0.01) and added to plates to assess antiviral activity. Uninfected HEp2 cells were used to assess compound cytotoxicity. Assays were incubated for 5 days at 37° C. in a 5% CO2 atmosphere. The extent of CPE was determined via metabolism of the vital dye 3-(4,5-dimethylthiaxol-2-yl)-2,5-diphenyltetrazolium bromide (MTT). MTT (1 mg/ml) was added to each well and plates incubated for 2 hours incubation at 37° C. Wells were aspirated, iso-propanol (200 μL) was added and absorbance values read at 540/650 nm. Compound concentrations that inhibited CPE by 50% (EC50) and developed cytotoxicity (CC50) were calculated using non-linear regression analysis.
Representative mean EC50 values obtained are also provided. In the inventors' experience, replicate EC50 values usually fall within three standard deviations of the mean.

[1] = read-out: Activity Range (RSV A2 EC50)
[2] = mean EC50, read-out: RSV A2 EC50

EC50 [1] [nM]	EC50 [2] [nM]	SMILES
100 to 499	140	Cc1ocnc1C(=O)N1CCN2C(=O)c3cccn3CC12c1ccc(Cl)cc1 (centres unmarked) [Compound 3]
< 49	19	Cc1nocc1C(=O)N1CCN2C(=O)c3cccn3CC12c1ccc(Cl)cc1 (centres unmarked) [Compound 4]
500 to 10000	1200	Cc1nocc1C(=O)N1CCN2C(=O)c3cncn3CC12c1ccc(Cl)cc1 (centres unmarked) [Compound 13]
50 to 99	56	O=C(c1ccoc1)N1CCN2C(=O)c3cccn3CC12c1ccc(Cl)cc1 (centres unmarked) [Compound 15]
500 to 10000	980	O=C(c1ccon1)N1CCN2C(=O)c3cccn3CC12c1ccc(Cl)cc1 (centres unmarked) [Compound 16]
< 49	2.2	Cc1nocc1C(=O)N1CCN2C(=O)c3ccc(Cl)n3CC12c1ccc(Cl)cc1 (centres unmarked) [Compound 22, 8-chloro-10a-(4-chlorophenyl)-1-[(3-methyl-1,2-oxazol-4-yl)carbonyl]-2,3,10,10a-tetrahydro-1H,5H-imidazo[1,2-a]pyrrolo[1,2-d]pyrazin-5-one]
50 to 99	88	Cc1nocc1C(=O)N1CCN2C(=O)c3ccc(CO)n3CC12c1ccc(Cl)cc1 (centres unmarked) [Compound 28]
500 to 10000	1000	Cc1nocc1C(=O)N1CCN2C(=O)c3cc(CO)cn3CC12c1ccc(Cl)cc1 (centres unmarked) [Compound 29]
< 49	15	Cc1nocc1C(=O)N1CCN2C(=O)c3cccc(=O)n3CC12c1ccc(Cl)cc1 (centres unmarked) [Compound 39, 11a-(4-chlorophenyl)-1-[(3-methyl-1,2-oxazol-4-yl)carbonyl]-2,3,11,11a-tetrahydro-1H-imidazo[1,2-a]pyrido[1,2-d]pyrazine-5,9-dione]
100 to 499	210	Cc1oncc1C(=O)N1CCN2C(=O)c3cccc(=O)n3CC12c1ccc(Cl)cc1 (centres unmarked) [Compound 40]
> 10000		Cc1cc2n(n1)CC1(c3ccc(Cl)cc3)N(C(=O)NCCc3ccccc3)CCN1C2=O (centres unmarked) [Compound 41, 10a-(4-chlorophenyl)-7-methyl-5-oxo-N-(2-phenylethyl)-2,3,10,10a-tetrahydro-1H,5H-imidazo[1,2-a]pyrazolo[1,5-d]pyrazine-1-carboxamide]
> 10000		Cc1cc2n(n1)CC1(c3ccc(Cl)cc3)N(C(=O)c3ccc(F)cc3)CCN1C2=O (centres unmarked) [Compound 42]
500 to 10000	3400	Cc1cc2n(n1)CC1(c3ccc(Cl)cc3)N(C(=O)c3ccoc3)CCN1C2=O (centres unmarked) [Compound 43]
> 10000		Cc1cc2n(n1)CC1(c3ccc(Cl)cc3)N(C(=O)c3cccnc3)CCN1C2=O (centres unmarked) [Compound 44]
> 10000		Cc1cc2n(n1)CC1(c3ccc(Cl)cc3)N(C(=O)c3ccc(F)nc3)CCN1C2=O (centres unmarked) [Compound 45]
> 10000		Cc1cc2n(n1)CC1(c3ccc(Cl)cc3)N(C(=O)NCc3ccccc3)CCN1C2=O (centres unmarked) [Compound 46]

Second part, the molecule before the results:

SMILES	EC50 [1] [nM]	EC50 [2] [nM]
Cc1nocc1C(=O)N1CCN2C(=O)c3cccn3CC12c1ccc(OC(F)F)cc1 (centres unmarked) [Compound 1, 10a-[4-(difluoromethoxy)phenyl]-1-[(3-methyl-1,2-oxazol-4-yl)carbonyl]-2,3,10,10a-tetrahydro-1H,5H-imidazo[1,2-a]pyrrolo[1,2-d]pyrazin-5-one]	50 to 99	89
Cc1nocc1C(=O)N1CCN2C(=O)c3cccn3CC12c1ccc(F)cc1 (centres unmarked) [Compound 2]	< 49	21
Cc1nocc1C(=O)N1CCN2C(=O)c3cccn3CC12c1cccc(F)c1 (centres unmarked) [Compound 5]	< 49	34
COc1ccc(C23Cn4cccc4C(=O)N2CCN3C(=O)c2conc2C)cc1 (centres unmarked) [Compound 6]	50 to 99	52
O=C(c1cocn1)N1CCN2C(=O)c3cccn3CC12c1ccc(F)cc1 (centres unmarked) [Compound 7]	100 to 499	410
COc1ccc(C23Cn4cccc4C(=O)N2CCN3C(=O)c2cocn2)cc1 (centres unmarked) [Compound 8]	500 to 10000	1800
Cc1ccc(C23Cn4cccc4C(=O)N2CCN3C(=O)c2conc2C)cc1 (centres unmarked) [Compound 9]	< 49	13
CCN(CC)S(=O)(=O)c1ccc(C23Cn4cccc4C(=O)N2CCN3C(=O)c2conc2C)cc1 (centres unmarked) [Compound 10]	> 10000	
Cc1nocc1C(=O)N1CCN2C(=O)c3nccn3CC12c1ccc(Cl)cc1 (centres unmarked) [Compound 11]	100 to 499	170
Cc1nocc1C(=O)N1CCN2C(=O)c3c(C)ncn3CC12c1ccc(Cl)cc1 (centres unmarked) [Compound 12]	500 to 10000	7500
Cc1ccc(C23Cn4cccc4C(=O)N2CCN3C(=O)c2cnoc2C)cc1F (centres unmarked) [Compound 14]	50 to 99	94
Cn1cc(C(=O)N2CCN3C(=O)c4cccn4CC23c2ccc(Cl)cc2)c(C(F)(F)F)n1 (centres unmarked) [Compound 17]	500 to 10000	860
O=C1c2cccn2CC2(c3ccc(Cl)cc3)N1CCN2C(=O)C1CC1 (centres unmarked) [Compound 18]	500 to 10000	4100
Cc1nocc1C(=O)N1CCN2C(=O)c3cccn3CC12C1CCCCC1 (centres unmarked) [Compound 19]	50 to 99	65
CCC12Cn3cccc3C(=O)N1CCN2C(=O)c1conc1C (centres unmarked) [Compound 20]	500 to 10000	6700
Cc1nocc1C(=O)N1CCN2C(=O)c3cccn3CC12C(C)(C)C (centres unmarked) [Compound 21]	> 10000	

SMILES	EC50 [1] [nM]	EC50 [2] [nM]
COc1ccc(C23Cn4c(Cl)ccc4C(=O)N2CCN3C(=O)c2conc2C)cc1 (centres unmarked) [Compound 23]	< 49	8
CC(=O)c1cc2n(c1)CC1(c3ccc(Cl)cc3)N(C(=O)c3cnoc3C)CCN1C2=O (centres unmarked) [Compound 24, 7-acetyl-10a-(4-chlorophenyl)-1-[(5-methyl-1,2-oxazol-4-yl)carbonyl]-2,3,10,10a-tetrahydro-1H,5H-imidazo[1,2-a]pyrrolo[1,2-d]pyrazin-5-one]	> 10000	
Cc1nocc1C(=O)N1CCN2C(=O)c3ccc(CN4CCOCC4)n3CC12c1ccc(Cl)cc1 (centres unmarked) [Compound 25, 10a-(4-chlorophenyl)-1-[(3-methyl-1,2-oxazol-4-yl)carbonyl]-8-(morpholin-4-ylmethyl)-2,3,10,10a-tetrahydro-1H,5H-imidazo[1,2-a]pyrrolo[1,2-d]pyrazin-5-one]	50 to 99	65
Cc1nocc1C(=O)N1CCN2C(=O)c3cc(CN4CCOCC4)cn3CC12c1ccc(Cl)cc1 (centres unmarked) [Compound 26]	> 10000	
Cc1nocc1C(=O)N1CCN2C(=O)c3cc(CN(C)C)cn3CC12c1ccc(Cl)cc1 (centres unmarked) [Compound 27]	500 to 10000	9500
Cc1nocc1C(=O)N1CCN2C(=O)c3cc(-c4cccnc4)cn3CC12c1ccc(Cl)cc1 (centres unmarked) [Compound 30, 10a-(4-chlorophenyl)-1-[(3-methyl-1,2-oxazol-4-yl)carbonyl]-7-(pyridin-3-yl)-2,3,10,10a-tetrahydro-1H,5H-imidazo[1,2-a]pyrrolo[1,2-d]pyrazin-5-one]	< 49	36
Cc1nocc1C(=O)N1CCN2C(=O)c3cc(-c4cnn(C)c4)cn3CC12c1ccc(Cl)cc1 (centres unmarked) [Compound 31]	< 49	7.6
Cc1oncc1C(=O)N1CCN2C(=O)c3ccc(-c4ccncc4)n3CC12c1ccc(Cl)cc1 (centres unmarked) [Compound 32, 10a-(4-chlorophenyl)-1-[(5-methyl-1,2-oxazol-4-yl)carbonyl]-8-(pyridin-4-yl)-2,3,10,10a-tetrahydro-1H,5H-imidazo[1,2-a]pyrrolo[1,2-d]pyrazin-5-one]	500 to 10000	690
Cc1nocc1C(=O)N1CCN2C(=O)c3ccc(-c4cccnc4)n3CC12c1ccc(Cl)cc1 (centres unmarked) [Compound 33]	500 to 10000	3100
COc1ccc(C23Cn4c(ccc4-c4cnn(C)c4)C(=O)N2CCN3C(=O)c2conc2C)cc1 (centres unmarked) [Compound 34]	100 to 499	380
Cc1nocc1C(=O)N1CCN2C(=O)c3cccn3CC12c1ccccc1 (centres unmarked) [Compound 35, 1-[(3-methyl-1,2-oxazol-4-yl)carbonyl]-10a-phenyl-2,3,10,10a-tetrahydro-1H,5H-imidazo[1,2-a]pyrrolo[1,2-d]pyrazin-5-one]	50 to 99	54
Cc1nocc1C(=O)N1CCN2C(=O)c3cccn3CC12c1ccc(N2CCCC2)cc1 (centres unmarked) [Compound 36, 1-[(3-methyl-1,2-oxazol-4-yl)carbonyl]-10a-[4-(pyrrolidin-1-yl)phenyl]-2,3,10,10a-tetrahydro-1H,5H-imidazo[1,2-a]pyrrolo[1,2-d]pyrazin-5-one]	100 to 499	480
Cc1nocc1C(=O)N1CCN2C(=O)c3cccn3CC12c1ccc(C#N)cc1 (centres unmarked) [Compound 37, 4-{1-[(3-methyl-1,2-oxazol-4-yl)carbonyl]-5-oxo-2,3-dihydro-1H,5H-imidazo[1,2-a]pyrrolo[1,2-d]pyrazin-10a(10H)-yl}benzonitrile]	100 to 499	120
Cc1nocc1C(=O)N1CCN2C(=O)c3cc(C(=O)N(C)C)cn3CC12c1ccc(Cl)cc1 (centres unmarked) [Compound 38, 10a-(4-chlorophenyl)-N,N-dimethyl-1-[(3-methyl-1,2-oxazol-4-yl)carbonyl]-5-oxo-2,3,10,10a-tetrahydro-1H,5H-imidazo[1,2-a]pyrrolo[1,2-d]pyrazine-7-carboxamide]	> 10000	
Cc1cc2n(n1)CC1(c3ccc(Cl)cc3)NCCN1C2=O (centres unmarked) [Compound 47]	> 10000	

From US8604034B2, “Substituted imidazo[1,2-α]pyrrolo[1,2-d]pyrazines for treating respiratory syncytial virus (RSV) infections” (Biota Scientific Management Pty Ltd., priority 2010, dated 2013)
